Experimental data taken from patent publication US8093286B2, “Methods for treatment with bucindolol based on genetic targeting” (The Regents of the University of Colorado, a body corporate, priority 2004, dated 2012).
Counter-ions that a name gives are not always drawn.

How the values were obtained:
[1] = BEST trial, peripheral venous norepinephrine and haemodynamic changes; assay type: in vivo, human
Procedure: (§1) Because of an initial delay in setting up the procedures, collection of blood samples for norepinephrine in all randomized patients began 6 months after trial initiation.
(§2) Peripheral venous NE samples were drawn at baseline, 3 and 12 months by inserting a 21 gauge butterfly needle into an arm vein and placing the subject in a quiet room in a supine position for 30 minutes. The initial 3 ml of blood was discarded, and then 5 ml of blood was withdrawn and immediately transferred to pre-chilled 5 ml tubes containing EDTA. Within 30 min plasma was separated and frozen at −70° C. Sites shipped samples on dry ice to a central laboratory (LabCorp, Raritan, N.J.) every 3 mo, where the samples were stored at −85° C. and assayed within 3 weeks. NE was measured by HPLC-electrochemical detection using the Bio-Rad HPLC method (Bio-Rad Laboratories Hercules, Calif.). Quality control included re-measuring all samples with initial values of <200 pg/ml or >2000 pg/ml, from the 2nd stored tube; and routinely (every 20 samples) measuring known amounts.
(§3) Means and standard deviations (SD) for continuous data, and proportions or percentages for categorical data are presented. T-tests or Wilcoxon rank sum tests were used for continuous data, and chi-square or Fisher's exact test for categorical data. An alpha level of 0.05 (2 tailed, unadjusted) was used to indicate statistical significance.

[2] = system: systemic venous norepinephrine; assay: as above; assay type: in vivo, human; conditions: for NE change @ 3 mos, mean ± SD: Bucindolol Inter subgroup (Δ NE −244.5, ≦ +145), hydrochloride
Procedure: as §1, §2, §3

[3] = system: nonfailing human right ventricular trabeculae; assay: contractile response of isolated right ventricular trabeculae from nonfailing human hearts; conditions: with and without forskolin
Procedure: Nonfailing hearts were obtained from local potential organ donors whose hearts were not transplanted because of physical or ABO blood type incompatibility. Failing hearts were from patients with end-stage heart failure due to ischemic or non-ischemic dilated cardiomyopathies who underwent cardiac transplantation. The demographic characteristics of the hearts are provided in Results. The contractile response of isolated, field stimulated, human trabeculae was assessed as previously described {1755; a-c}. Trabeculae of uniform size (1 to 2×6 to 8 mm) were mounted in 80 ml muscle bath chambers in Tyrode's solution at pH 7.45 bubbled with 95% O2-5% CO2 at 36^0. After equilibration, a tension of 75% of Lmax was applied to each individual trabeculum. Field-stimulation by a 5-ms pulse at 10% above threshold was then applied, and after equilibration full dose-response curves to isoproterenol, bucindolol or xamoterol were performed using the indicated concentrations and application of increasing doses every 5 minutes. In experiments in which forskolin was used to enhance signal transduction {e,f}, 10^−6 M of this adenylyl cyclase activator was applied to the tissue baths 15-20 minutes prior to the performance of dose-response curves, and allowed to achieve stability of tension response. Systolic tension at each dose was calculated as the stimulated tension in mN/mm^2 minus baseline tension. The maximum tension, concentration of isoproterenol that produced 50% of the maximum developed tension (EC50) and curve slope were computed by nonlinear repeated measures analysis of covariance. […] Statistical methods were employed as described in Examples 3 and 4.

[4] = system: advanced heart failure patients; assay: proposed bucindolol vs metoprolol CR/XL trial (Study Design II); assay type: in vivo, human
From the text: In Study Design II (FIG. 28) for an additional study design, patients with symptomatic and advanced heart failure (reinforced by the heart failure hospitalization history over the preceding year; therefore, patients who are Class II at the time of screening are allowed in the trial) and LVEFs≦0.35 (the general description of the BEST Trial population) are initially screened for the absence of the α2c 322-325 DEL polymorphism, in the carrier state (either heterozygous or homozygous). […]
The primary endpoint of the trial is noninferiority against metoprolol CR/XL (TOPROL-XL), using the 95% upper confidence limit (UCL) of the time to mortality plus heart failure hospitalization endpoint hazard ratio that was measured in the MERIT-HF trial (Hjalmarson et al. 2000). […] The 95% upper confidence limit for the hazard ratio (UCL) for bucindolol:metoprolol CR/XL (“noninferiority margin”) has been determined from the formula (Hasselblad et al., 2001) {(UCL bucindolol:metoprolol CR/XL)*(UCL metoprolol CR/XL:placebo)≦1.0}; using the MERIT-HF entire cohort UCL of 0.80 for metoprolol:placebo yields x*0.80≦1.0, or a noninferiority margin x≦1.25. […]

[5] = system: patients with Class III/IV heart failure; conditions: cited from earlier work

CC(C)(Cc1c[nH]c2ccccc12)NCC(O)COc1ccccc1C#N (stereo not drawn) [bucindolol, (2-{2-hydroxy-3{{2-(3-indolyl)-1,1-dimethylethyl}amino}propoxy}-benzonitrile hydrochloride)]
Change in LVEF @ 12 mos ([1]; Bucindolol Incr subgroup): 7.1 ± 8.8 EFU
Change in LVEF @ 12 mos ([1]; Bucindolol Inter subgroup): 7.3 ± 10.4 EFU
Change in LVEF @ 12 mos ([1]; Bucindolol Redxn subgroup): 8.8 ± 9.2 EFU
decrease in norepinephrine relative to changes in the placebo group ([2]; 3 months): 19%
decrease in norepinephrine relative to changes in the placebo group ([2]; 12 months): 13%
average decrease in norepinephrine at 3 months ([2]; 153 bucindolol subjects at higher mortality risk with norepinephrine reduction): 529 pg/mL
Change in SBP @ 12 mos ([2]; Bucindolol Incr subgroup): −0.9 ± 16.8 mm Hg
HR (heart rate) change @ 12 mos ([2]; Bucindolol Incr subgroup): −8.1 ± 14.6 BPM
Change in LVEF @ 3 mos ([2]; Bucindolol Inter subgroup): 5.7 ± 7.9 EFU
Change in SBP @ 3 mos ([2]; Bucindolol Inter subgroup): −0.5 ± 15.7 mm Hg
Change in SBP @ 12 mos ([2]; Bucindolol Inter subgroup): 0.7 ± 18.0 mm Hg
HR (heart rate) change @ 3 mos ([2]; Bucindolol Inter subgroup): −9.7 ± 12.4 BPM
HR (heart rate) change @ 12 mos ([2]; Bucindolol Inter subgroup): −7.9 ± 13.5 BPM
NE change @ 3 mos, mean ± SD ([2]; n = 551): -44 pg/mL
NE change @ 3 mos, mean ± SD ([2]; n = 551, listed as Bucindolol): -44 ± 103 pg/mL
NE change @ 12 mos, mean ± SD ([2]; Bucindolol Inter subgroup, n = 551): 17.5 ± 216 pg/mL
Change in SBP @ 3 mos ([2]; Bucindolol Redxn subgroup): −0.7 ± 18.2 mm Hg
Change in SBP @ 12 mos ([2]; Bucindolol Redxn subgroup): 2.7 ± 20.1 mm Hg
proportion of bucindolol-treated patients with marked norepinephrine reduction at 3 months ([2]; NE reduction ≧244.5 pg/ml): 18%
average reduction in norepinephrine at 3 months (SEM) ([2]; α2c DEL 322-325 carriers): 153 ± 57 pg/mL
average reduction in norepinephrine at 3 months (SEM) ([2]; α2c WT/WT patients): 50 ± 13 pg/mL
intrinsic sympathomimetic activity (increase in force) [3]: no evidence of ISA
expected hazard ratio bucindolol vs. metoprolol CR/XL, mortality plus HF hospitalization ([4]; α2c WT/WT U.S. population, 0.72/0.84): 0.86
expected hazard ratio bucindolol:metoprolol CR/XL, mortality+HF hospitalizations ([4]; β1-389 Arg/Arg + α2c wild type vs MERIT U.S. data, 0.61/0.84): 0.73
HF Hospitalization hazard ratio, bucindolol vs placebo ([5]; BEST entire cohort (n = 2708)): 0.78; 1045 Ev
Mortality + HF Hospitalization hazard ratio, bucindolol vs placebo ([5]; BEST entire cohort (n = 2708)): 0.81; 1421 Ev
reduction in all-cause mortality ([5]; BEST entire cohort): 10%
reduction in mortality or heart failure hospitalization ([5]; BEST entire cohort): 19%
reduction in event rate (death or heart failure hospitalization) ([5]; Class III patients, overall): 22%
increase in combined endpoint of death or heart failure hospitalization ([5]; Class IV patients, first 6 months of treatment): 1.7 fold
